Measurements as given in the supplement of paper PMC11061612.

Experiments:
[1] = system: SLVL (B-Cell Non-Hodgkin's Lymphoma); test: combination Emax (second highest fraction inhibited in the dose matrix, 72 h); higher = more inhibition; extreme values may be limits of the assay
Procedure, shortened: (§1)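 Cell lines in DMEM/F12 or RPMI with 10% FBS were plated in 1536-well plates, held 24 hours at 37°C, 5% CO2, then given two-drug dose matrices for 72 hours (DMSO typically 0.2%). Viability was read by CellTiter-Glo 2.0 luminescence and scaled as inhibition from 0 (vehicle wells) to 1 (blank wells). Combination Emax is the second-highest inhibition in the matrix; Bliss excess is observed combination effect minus expected EA + EB − EA·EB, EA and EB being single-agent effects.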

[2] = system: MES-SA (Other Solid Carcinomas); test: as above
Procedure, shortened: as §1

[3] = system: HCC1143 (Breast Carcinoma); test: as above
Procedure, shortened: as §1

[4] = system: SNG-M (Endometrial Carcinoma); test: as above
Procedure, shortened: as §1

[5] = system: MSTO-211H (Mesothelioma); test: as above
Procedure, shortened: as §1

[6] = system: 647-V (Bladder Carcinoma); test: as above
Procedure, shortened: as §1

[7] = system: MES-SA (Other Solid Carcinomas); test: Bliss excess, mean over the matrix (fraction); higher = more synergy
Procedure, shortened: as §1

[8] = system: U-118-MG (Low Grade Glioma); test: as above
Procedure, shortened: as §1

[9] = system: D-283MED (Other Solid Carcinomas); test: as above
Procedure, shortened: as §1

[10] = system: NCI-H1688 (Small Cell Lung Carcinoma); test: as above
Procedure, shortened: as §1

[11] = system: HuO9 (Osteosarcoma); test: as above
Procedure, shortened: as §1

[12] = system: HCC38 (Breast Carcinoma); test: as above
Procedure, shortened: as §1

[13] = system: ETK-1 (Biliary Tract Carcinoma); test: as above
Procedure, shortened: as §1

[14] = system: SW948 (Colorectal Carcinoma); test: as above
Procedure, shortened: as §1

[15] = system: GDM-1 (Acute Myeloid Leukemia); test: as above
Procedure, shortened: as §1

[16] = system: SW48 (Colorectal Carcinoma); test: as above
Procedure, shortened: as §1

[17] = system: SKN-3 (Head and Neck Carcinoma); test: as above
Procedure, shortened: as §1

[18] = system: EW-22 (Ewing's Sarcoma); test: as above
Procedure, shortened: as §1

[19] = system: RCC10RGB (Kidney Carcinoma); test: as above
Procedure, shortened: as §1

[20] = system: NOMO-1 (Acute Myeloid Leukemia); test: as above
Procedure, shortened: as §1
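For Bliss excess, mean over the matrix in this document: after 72 h of two-drug dosing.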

With `COc1nnc2ccc(N3CCC(c4ccc(OCCN5CCN(C)C(=O)[C@H]5C)cc4)CC3)nn12` [AZD5153] + Cc1c2c(nn1C)CSCc1cc(n(C)n1)CSc1cc(c3ccccc3c1)OCCCc1c(C(=O)O)n(C)c3c-2c(Cl)ccc13 [AZD5991] (first compound max 1 µM, 7x7, partner max 1 µM) the “combination Emax” value [1] was 0.715, the “combination Emax” value [2] was 0.593 and the “combination Emax” value [3] was 0.565. The “combination Emax” value [4] was 0.639, the “combination Emax” value [5] was 0.293 and the “combination Emax” value [6] was 0.587. The Bliss excess [7] was -0.0125, the Bliss excess [8] was -0.0341 and the Bliss excess [9] was -0.0409. It also gave a Bliss excess [10] of 0.0155, a Bliss excess [11] of 0.0377 and a Bliss excess [12] of -0.0019. For the same compound, the Bliss excess [13] was -0.0436, the Bliss excess [14] was -0.0482 and the Bliss excess [15] was 0.0307. The Bliss excess [16] was 0.015, the Bliss excess [17] was -0.0234 and the Bliss excess [18] was 0.0553. The Bliss excess [19] was -0.0843 and the Bliss excess [20] was 0.0355.
In the case of `COc1nnc2ccc(N3CCC(c4ccc(OCCN5CCN(C)C(=O)[C@H]5C)cc4)CC3)nn12` [AZD5153] + Cn1cnc2c(F)c(Nc3ccc(Br)cc3Cl)c(C(=O)NOCCO)cc21 [Selumetinib] (first compound max 1 µM, 7x7, partner max 10 µM), the “combination Emax” value [1] is reported as 0.738, the “combination Emax” value [2] is reported as 0.478 and the “combination Emax” value [3] is reported as 0.513. For the same compound, the “combination Emax” value [4] was 0.632, the “combination Emax” value [5] was 0.41 and the “combination Emax” value [6] was 0.61. The Bliss excess [7] was 0.0199, the Bliss excess [8] was -0.016 and the Bliss excess [9] was -0.0211. The Bliss excess [10] was -0.0216, the Bliss excess [11] was 0.0052 and the Bliss excess [12] was -0.0392. The Bliss excess [13] was -0.0451, the Bliss excess [14] was -0.0006 and the Bliss excess [15] was -0.0266. For the same compound, the Bliss excess [16] was 0.0619, the Bliss excess [17] was -0.019 and the Bliss excess [18] was -0.0668. The Bliss excess [19] was -0.114 and the Bliss excess [20] was 0.0443.
`Cc1c2c(nn1C)CSCc1cc(n(C)n1)CSc1cc(c3ccccc3c1)OCCCc1c(C(=O)O)n(C)c3c-2c(Cl)ccc13` [AZD5991] + C1CN(CCC1(C(=O)N[C@@H](CCO)C2=CC=C(C=C2)Cl)N)C3=NC=NC4=C3C=CN4 [Capivasertib] (first compound max 1 µM, 7x7, partner max 3 µM) was tested, and the “combination Emax” value [1] was 0.567, the “combination Emax” value [2] was 0.367 and the “combination Emax” value [3] was 0.252. For the same compound, the “combination Emax” value [4] was 0.333, the “combination Emax” value [5] was 0.245 and the “combination Emax” value [6] was 0.676. It also gave a Bliss excess [7] of -0.0144, a Bliss excess [8] of -0.0205 and a Bliss excess [9] of 0.0094. It also gave a Bliss excess [10] of 0.015, a Bliss excess [11] of 0.0085 and a Bliss excess [12] of 0.0062. It also gave a Bliss excess [13] of -0.0525, a Bliss excess [14] of 0.0308 and a Bliss excess [15] of 0.0461. The Bliss excess [16] was -0.034, the Bliss excess [17] was -0.0285 and the Bliss excess [18] was 0.0007. It also gave a Bliss excess [19] of -0.0085 and a Bliss excess [20] of 0.0814.
With `Cc1c2c(nn1C)CSCc1cc(n(C)n1)CSc1cc(c3ccccc3c1)OCCCc1c(C(=O)O)n(C)c3c-2c(Cl)ccc13` [AZD5991] + C=CCn1c(=O)c2cnc(Nc3ccc(N4CCN(C)CC4)cc3)nc2n1-c1cccc(C(C)(C)O)n1 [AZD1775] (first compound max 1 µM, partner max 1 µM) the “combination Emax” value [1] was 0.937, the “combination Emax” value [2] was 0.84 and the “combination Emax” value [3] was 0.797. The “combination Emax” value [4] was 0.733, the “combination Emax” value [5] was 0.596 and the “combination Emax” value [6] was 0.978. The Bliss excess [7] was 0.0402, the Bliss excess [8] was -0.0014 and the Bliss excess [9] was -0.0583. For the same compound, the Bliss excess [10] was -0.0502, the Bliss excess [11] was -0.0292 and the Bliss excess [12] was 0.0396. For the same compound, the Bliss excess [13] was 0.0386, the Bliss excess [14] was -0.13 and the Bliss excess [15] was 0.0207. It also gave a Bliss excess [16] of -0.0318, a Bliss excess [17] of 0.0116 and a Bliss excess [18] of 0.0756. For the same compound, the Bliss excess [19] was -0.0182 and the Bliss excess [20] was -0.01.
In the case of `Cc1c2c(nn1C)CSCc1cc(n(C)n1)CSc1cc(c3ccccc3c1)OCCCc1c(C(=O)O)n(C)c3c-2c(Cl)ccc13` [AZD5991] + CC1(C)CCC(CN2CCN(c3ccc(C(=O)NS(=O)(=O)c4ccc(NCC5CCOCC5)c([N+](=O)[O-])c4)c(Oc4cnc5[nH]ccc5c4)c3)CC2)=C(c2ccc(Cl)cc2)C1 [Venetoclax] (first compound max 1 µM, 7x7, partner max 1 µM), the “combination Emax” value [1] is reported as 0.777, the “combination Emax” value [2] is reported as 0.323 and the “combination Emax” value [3] is reported as 0.252. For the same compound, the “combination Emax” value [4] was 0.209, the “combination Emax” value [5] was 0.137 and the “combination Emax” value [6] was 0.618. For the same compound, the Bliss excess [7] was -0.0068, the Bliss excess [8] was -0.0328 and the Bliss excess [9] was 0.0701. It also gave a Bliss excess [10] of 0.105, a Bliss excess [11] of 0.0182 and a Bliss excess [12] of -0.0307. It also gave a Bliss excess [13] of -0.0526, a Bliss excess [14] of -0.003 and a Bliss excess [15] of 0.174. For the same compound, the Bliss excess [16] was 0.0059, the Bliss excess [17] was -0.03 and the Bliss excess [18] was 0.128. It also gave a Bliss excess [19] of -0.0086 and a Bliss excess [20] of 0.256.
In the case of `Cc1c2c(nn1C)CSCc1cc(n(C)n1)CSc1cc(c3ccccc3c1)OCCCc1c(C(=O)O)n(C)c3c-2c(Cl)ccc13` [AZD5991] + CCN(CCO)CCCOc1ccc2c(Nc3cc(CC(=O)Nc4cccc(F)c4)[nH]n3)ncnc2c1 [AZD2811] (first compound max 1 µM, 7x7, partner max 1 µM), the “combination Emax” value [1] is reported as 0.768, the “combination Emax” value [2] is reported as 0.806 and the “combination Emax” value [3] is reported as 0.371. For the same compound, the “combination Emax” value [4] was 0.345, the “combination Emax” value [5] was 0.443 and the “combination Emax” value [6] was 0.834. It also gave a Bliss excess [7] of 0.138, a Bliss excess [8] of 0.0042 and a Bliss excess [9] of 0.051. For the same compound, the Bliss excess [10] was 0.0059, the Bliss excess [11] was -0.0035 and the Bliss excess [12] was 0.058. It also gave a Bliss excess [13] of -0.0018, a Bliss excess [14] of -0.0014 and a Bliss excess [15] of 0.0444. The Bliss excess [16] was -0.0063, the Bliss excess [17] was 0.0134 and the Bliss excess [18] was 0.0711. It also gave a Bliss excess [19] of -0.0567 and a Bliss excess [20] of 0.0894.
In the case of `Cc1c2c(nn1C)CSCc1cc(n(C)n1)CSc1cc(c3ccccc3c1)OCCCc1c(C(=O)O)n(C)c3c-2c(Cl)ccc13` [AZD5991] + CN(C)CCCOc1ccc(-c2ccc3ncc4c(c3c2)n(C2CCOCC2)c(=O)n4C)cn1 [AZD0156] (first compound max 1 µM, 7x7, partner max 1 µM), the “combination Emax” value [1] is reported as 0.425, the “combination Emax” value [2] is reported as 0.384 and the “combination Emax” value [3] is reported as 0.364. The “combination Emax” value [4] was 0.209, the “combination Emax” value [5] was 0.188 and the “combination Emax” value [6] was 0.878. For the same compound, the Bliss excess [7] was 0.017, the Bliss excess [8] was -0.0035 and the Bliss excess [9] was 0.0096. The Bliss excess [10] was -0.0098, the Bliss excess [11] was -0.0171 and the Bliss excess [12] was -0.0182. It also gave a Bliss excess [13] of -0.0503, a Bliss excess [14] of -0.0205 and a Bliss excess [15] of 0.0079. The Bliss excess [16] was 0.0051, the Bliss excess [17] was -0.0173 and the Bliss excess [18] was -0.0015. It also gave a Bliss excess [19] of -0.0619 and a Bliss excess [20] of -0.0177.
